Test results as given in US20220089575A1, “FARNESOID X RECEPTOR AGONISTS AND USES THEREOF” (Metacrine, Inc., priority 2017, published 2022).

Target: T1, hFXR (Homo sapiens, UniProt Q96RI1)
T1 construct: expressed in transfected cells; host or cells: CV-1 cells
T1 sequence (Q96RI1 1-486): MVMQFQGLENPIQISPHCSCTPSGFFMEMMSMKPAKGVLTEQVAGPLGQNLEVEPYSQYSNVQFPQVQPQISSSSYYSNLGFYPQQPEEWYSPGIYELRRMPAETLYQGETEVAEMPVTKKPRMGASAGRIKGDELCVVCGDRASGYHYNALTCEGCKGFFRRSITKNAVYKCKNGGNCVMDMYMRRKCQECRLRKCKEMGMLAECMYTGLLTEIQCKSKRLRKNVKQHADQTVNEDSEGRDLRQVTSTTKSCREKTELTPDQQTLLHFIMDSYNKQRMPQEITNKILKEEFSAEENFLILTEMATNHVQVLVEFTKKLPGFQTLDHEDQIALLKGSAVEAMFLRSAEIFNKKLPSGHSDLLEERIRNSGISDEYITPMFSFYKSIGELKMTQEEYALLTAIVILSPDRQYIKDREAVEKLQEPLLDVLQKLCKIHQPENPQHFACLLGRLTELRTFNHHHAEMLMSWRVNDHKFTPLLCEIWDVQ
T1 sequence (P19793 1-462 partner): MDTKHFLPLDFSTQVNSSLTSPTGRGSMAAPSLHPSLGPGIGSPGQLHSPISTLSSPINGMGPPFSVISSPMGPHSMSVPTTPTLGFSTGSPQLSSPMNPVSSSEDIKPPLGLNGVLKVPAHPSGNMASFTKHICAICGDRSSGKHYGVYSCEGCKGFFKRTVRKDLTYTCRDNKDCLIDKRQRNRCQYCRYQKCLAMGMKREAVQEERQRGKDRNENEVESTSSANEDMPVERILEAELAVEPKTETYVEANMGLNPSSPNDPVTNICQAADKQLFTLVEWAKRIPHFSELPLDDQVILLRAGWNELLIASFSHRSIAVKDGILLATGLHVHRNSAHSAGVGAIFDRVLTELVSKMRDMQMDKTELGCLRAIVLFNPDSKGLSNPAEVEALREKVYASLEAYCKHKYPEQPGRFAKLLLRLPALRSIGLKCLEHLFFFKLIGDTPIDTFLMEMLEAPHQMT
Experiment: In Vitro FXR Assay (TK): TK-ECRE-luc reporter in transfected CV-1 cells
Type: cell-based
Conditions: 18 hrs, luminescence, maximum efficacy of <25% of the Fexarmine control classified as '+'
Procedure, shortened: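 Transiently transfected monkey CV-1 cells (hFXR, hRXR, TK-ECRE-luciferase, YFP control plasmid), held in stripped-serum DMEM, received compound dilutions from DMSO for 18 h at 37 °C. Activity was taken from luminescence of the cell lysates.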

Structure (SMILES) | EC50 [µM]
COCC1CN(C(=O)O[C@H]2CC[C@H](C(=O)N(C[C@H]3CC[C@H](c4ccc(OC)c(C)n4)CC3)c3cc(-c4coc(C5CC5)n4)ccn3)CC2)C1 [Compound 7.77, trans-4-((4-(2-Cyclopropyloxazol-4-yl)pyridin-2-yl)((trans-4-(5-methoxy-6-methylpyridin-2-yl)cyclohexyl)methyl)carbamoyl)cyclohexyl 3-(methoxymethyl)azetidine-1-carboxylate] | ≤ 0.25
COc1ccc([C@H]2CC[C@H](CN(c3cc(-c4coc(C5CC5)n4)ccn3)C(=O)[C@H]3CC[C@H](OC(=O)N(C)C)CC3)CC2)nc1C [Compound 7.78, trans-4-((4-(2-Cyclopropyloxazol-4-yl)pyridine-2-yl)((trans-4-(5-methoxy-6-methylpyridin-2-yl)cyclohexyl)methyl)carbamoyl)cyclohexyl dimethylcarbamate] | ≤ 0.25
COc1ccc([C@H]2CC[C@H](CN(c3cc(-c4coc(C5CC5)n4)ccn3)C(=O)[C@H]3CC[C@H](OC(=O)N4CC(N(C)C)C4)CC3)CC2)nc1C [Compound 7.79, trans-4-((4-(2-Cyclopropyloxazol-4-yl)pyridine-2-yl)((trans-4-(5-methoxy-6-methylpyridin-2-yl)cyclohexyl)methyl)carbamoyl)cyclohexyl 3-(dimethylamino)azetidine-1-carboxylate] | ≤ 0.25
COc1ccc([C@H]2CC[C@H](CN(c3cc(-c4coc(C5CC5)n4)ccn3)C(=O)[C@H]3CC[C@H](OC(=O)N4CC(CO)C4)CC3)CC2)nc1C [Compound 7.80, trans-4-(4-(2-Cyclopropyloxazol-4-yl)pyridine-2-yl)((trans-4-(5-methoxy-6-methylpyridin-2-yl)cyclohexyl)methyl) carbamoyl)cyclohexyl 3-(hydroxymethyl)azetidine-1-carboxylate] | ≤ 0.25
COc1ccc([C@H]2CC[C@H](CN(c3cc(-c4coc(C5CC5)n4)ccn3)C(=O)[C@H]3CC[C@H](OC(=O)N4CC(N(C)C)C4)CC3)CC2)cc1C [Compound 7.81, trans-4-((4-(2-Cyclopropyloxazol-4-yl)pyridine-2-yl)((trans-4-(4-methoxy-3-methylphenyl)cyclohexyl)methyl)carbamoyl)cyclohexyl 3-(dimethylamino)azetidine-1-carboxylate] | ≤ 0.25
COc1ccc([C@H]2CC[C@H](CN(c3cc(-c4coc(C(C)C)n4)ccn3)C(=O)[C@H]3CC[C@H](OC(=O)N4CC(OC)C4)CC3)CC2)nc1C [Compound 7.82, trans-4-((4-(2-Isopropyloxazol-4-yl)pyridine-2-yl)((trans-4-(5-methoxy-6-methylpyridin-2-yl)cyclohexyl)methyl)carbamoyl)cyclohexyl 3-methoxyazetidine-1-carboxylate] | ≤ 0.25
COc1ccc([C@H]2CC[C@H](CN(c3cc(-c4coc(C(C)C)n4)ccn3)C(=O)[C@H]3CC[C@H](OC(=O)N4CC(OC(C)C)C4)CC3)CC2)nc1C [Compound 7.83, trans-4-((4-(2-Isopropyloxazol-4-yl)pyridin-2-yl)((trans-4-(5-methoxy-6-methylpyridin-2-yl)cyclohexyl)methyl)carbamoyl)cyclohexyl 3-isopropoxyazetidine-1-carboxylate] | ≤ 0.25
COc1ccc([C@H]2CC[C@H](CN(c3cc(-c4coc(C(C)C)n4)ccn3)C(=O)[C@H]3CC[C@H](OC(=O)N4CC(N(C)C)C4)CC3)CC2)nc1C [Compound 7.84, trans-4-((4-(2-Isopropyloxazol-4-yl)pyridine-2-yl)((trans-4-(5-methoxy-6-methylpyridin-2-yl)cyclohexyl)methyl)carbamoyl)cyclohexyl 3-(dimethylamino)azetidine-1-carboxylate] | ≤ 0.25
COC(=O)CC1CN(C(=O)O[C@H]2CC[C@H](C(=O)N(C[C@H]3CC[C@H](c4ccc(OC)c(C)n4)CC3)c3cc(-c4coc(C5CC5)n4)ccn3)CC2)C1 [Compound 7.85, trans-4-((4-(2-Cyclopropyloxazol-4-yl)pyridine-2-yl)((trans-4-(5-methoxy-6-methylpyridin-2-yl)cyclohexyl)methyl)carbamoyl)cyclohexyl 3-(2-methoxy-2-oxoethyl)azetidine-1-carboxylate] | ≤ 0.25
COc1ccc([C@H]2CC[C@H](CN(c3cc(-c4coc(C5CC5)n4)ccn3)C(=O)[C@H]3CC[C@H](OC(=O)N4CC(CC(=O)O)C4)CC3)CC2)nc1C [Compound 7.86, 2-(1-(((trans-4-((4-(2-Cyclopropyloxazol-4-yl)pyridine-2-yl) ((trans-4-(5-methoxy-6-methylpyridin-2-yl)cyclohexyl)methyl)carbamoyl)cyclohexyl)oxy)carbonyl)azetidin-3-yl)acetic acid] | 0.25 to 1
CCOC1CN(C(=O)O[C@H]2CC[C@H](C(=O)N(C[C@H]3CC[C@H](c4ccc(OC)c(C)n4)CC3)c3cc(-c4coc(C5CC5)n4)ccn3)CC2)C1 [Compound 7.87, trans-4-((4-(2-Cyclopropyloxazol-4-yl)pyridine-2-yl)((trans-4-(5-methoxy-6-methylpyridin-2-yl)cyclohexyl)methyl)carbamoyl)cyclohexyl 3-ethoxyazetidine-1-carboxylate] | ≤ 0.25
COc1ccc([C@H]2CC[C@H](CN(c3cc(-c4coc(C5CC5)n4)ccn3)C(=O)[C@H]3CC[C@H](OC(=O)N4CC(C#N)C4)CC3)CC2)nc1C [Compound 7.88, trans-4-((4-(2-Cyclopropyloxazol-4-yl)pyridine-2-yl)((trans-4-(5-methoxy-6-methylpyridin-2-yl)cyclohexyl)methyl)carbamoyl)cyclohexyl 3-cyanoazetidine-1-carboxylate] | ≤ 0.25
COc1ccc([C@H]2CC[C@H](CN(c3cc(-c4coc(C5CC5)n4)ccn3)C(=O)[C@H]3CC[C@H](OC(=O)N4CC(C)C4)CC3)CC2)nc1C [Compound 7.89, trans-4-((4-(2-Cyclopropyloxazol-4-yl)pyridine-2-yl)((trans-4-(5-methoxy-6-methylpyridin-2-yl)cyclohexyl)methyl)carbamoyl)cyclohexyl 3-methylazetidine-1-carboxylate] | ≤ 0.25
CCC1CN(C(=O)O[C@H]2CC[C@H](C(=O)N(C[C@H]3CC[C@H](c4ccc(OC)c(C)n4)CC3)c3cc(-c4coc(C5CC5)n4)ccn3)CC2)C1 [Compound 7.90, trans-4-((4-(2-Cyclopropyloxazol-4-yl)pyridine-2-yl)((trans-4-(5-methoxy-6-methylpyridin-2-yl)cyclohexyl)methyl)carbamoyl)cyclohexyl 3-ethylazetidine-1-carboxylate] | ≤ 0.25
COc1ccc([C@H]2CC[C@H](CN(c3cc(-c4coc(C5CC5)n4)ccn3)C(=O)[C@H]3CC[C@H](OC(=O)N4CC(OC(C)C)C4)CC3)CC2)nc1C [Compound 7.91, trans-4-((4-(2-Cyclopropyloxazol-4-yl)pyridine-2-yl)((trans-4-(5-methoxy-6-methylpyridin-2-yl)cyclohexyl)methyl)carbamoyl)cyclohexyl 3-isopropoxyazetidine-1-carboxylate] | ≤ 0.25
COc1ncc([C@H]2CC[C@H](CN(c3cc(-c4coc(C5CC5)n4)ccn3)C(=O)[C@H]3CC[C@H](OC(=O)N4CC(N(C)C)C4)CC3)CC2)cc1C [Compound 7.92, trans-4-((4-(2-Cyclopropyloxazol-4-yl)pyridine-2-yl)((trans-4-(6-methoxy-5-methylpyridin-3-yl)cyclohexyl)methyl)carbamoyl)cyclohexyl 3-(dimethylamino)azetidine-1-carboxylate] | ≤ 0.25
